From patent US9181259B2 (LEO PHARMA A/S, priority 2012, dated 2015) come the findings set out here.

Where a name gives a salt, the structure may show the parent alone.

T1 sequence (P25103 whole entry): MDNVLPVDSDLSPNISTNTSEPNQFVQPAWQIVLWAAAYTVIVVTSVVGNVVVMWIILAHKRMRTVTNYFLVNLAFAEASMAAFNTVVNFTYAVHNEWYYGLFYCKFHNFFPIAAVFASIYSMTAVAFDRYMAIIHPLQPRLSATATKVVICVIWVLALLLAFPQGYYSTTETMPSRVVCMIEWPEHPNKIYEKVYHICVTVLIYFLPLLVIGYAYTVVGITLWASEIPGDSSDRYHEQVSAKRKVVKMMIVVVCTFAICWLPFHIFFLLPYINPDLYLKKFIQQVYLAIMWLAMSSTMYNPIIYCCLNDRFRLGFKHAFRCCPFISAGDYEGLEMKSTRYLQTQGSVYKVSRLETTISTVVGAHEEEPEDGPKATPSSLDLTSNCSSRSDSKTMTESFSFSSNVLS

The assay concerns the target T1, NK1 receptor (Homo sapiens, UniProt P25103).
T1 construct: Measurement of NK1 Receptor Mediated Intracellular [Ca^2+]; Mobilization in U251 MG Cells Using FLIPR; endogenous in cells; host or cells: U251 MG cells
The assay is described as follows: NK1 receptor mediated intracellular [Ca2+] mobilization in U251 MG cells using FLIPR. The assay is classed as cell-based. The settings on record: antagonist potency against Substance P (EC80), normalized to 100 nM Aprepitant, read-out: U251MG (FLIPR pIC50) (converted). As for the experimental part:
Measurement of NK1 Receptor Mediated Intracellular [Ca^2+] Mobilization in U251 MG Cells Using FLIPR
U251 MG cells were seeded into black walled clear-bottom 384-well plates (Greiner Bio-One GmbH, Frickenhausen, Germany) at a density of 15,000 cells/well in 50 μl culture medium and cultured overnight in a 37° C. 5% CO2 incubator. The cells were then loaded with the calcium sensitive dye Fluo-4 (Invitrogen) at 1 μM in buffer, containing 0.04%
Pluronic F-127 (Sigma-Aldrich), and 2.5 mM probenecid (Sigma-Aldrich) for 60 min in a humidified atmosphere of 5% CO2. Thereafter, cells were washed three times in washing buffer containing 20 mM HEPES and 2.5 mM probenecid pH 7.3. Serial dilutions of test compounds in assay buffer containing 2% dimethyl sulfoxide (final concentration in the cell plate is 0.5% DMSO) and/or agonist were then automatically pipetted into each test well, and the peak fluorescence intensity was recorded (lex, 488 nm; lem, 540 nm) by the FLIPR instrument (Molecular Devices) for approximately 5 min. To measure antagonist potency, cell plates were first incubated with the test compound and intracellular fluorescence recorded for 5 minutes to check a potential agonist effect of the test compound. Cell plates were quickly removed from the FLIPR instrument and incubated for additional 10 minutes at 37° C. before being moved back to the FLIPR instrument for Substance P (EC80) addition. The response was measured as the peak relative fluorescence change after agonist addition.
The IC50 value is defined as the molar concentration of a test compound that produces a response midway between the fitted top and the fitted bottom. pIC50=−log IC50
Formula is listed as follows: Fit(% Effect calculated)=(A+((B−A)/(1+((C/X)^D)))) • A: bottom value • B: top value • C: […] • D: Hill slope coefficient
Ref: Sullivan E, Tucker E M, and Dale I L. Measurement of [Ca^2+] using the Fluorometric Imaging Plate Reader (FLIPR). Methods Mol Biol 114:125-133, 1999.
Compounds of the present invention were tested according to example 120.
As to `COC(=O)C1(C)CC2C(c3ccccc3C)N(C(=O)N(C)Cc3cc(C(F)(F)F)cc(C(F)(F)F)c3)CCN2C1=O` (single isomer, unassigned) [Compound 15, Methyl 2-({[3,5-bis(trifluoromethyl)phenyl]methyl}(methyl)carbamoyl)-7-methyl-1-(2-methylphenyl)-6-oxo-octahydropyrrolo{1,2-a}piperazine-7-carboxylate], the IC50 was 0.1 nM.

For `Cc1ccccc1C1C2CCC(=O)N2CCCN1C(=O)N(C)Cc1cc(C(F)(F)F)cc(C(F)(F)F)c1` (mixture of isomers) [Compound 7, N-{[3,5-bis(trifluoromethyl)phenyl]methyl}-N-methyl-1-(2-methylphenyl)-7-oxo-octahydro-1H-pyrrolo[1,2-a][1,4]diazepine-2-carboxamide], the IC50 is 1.07 nM.

Turning to `Cc1ccccc1C1C2CC(CN3CCOCC3)C(=O)N2CCN1C(=O)N(C)Cc1cc(C(F)(F)F)cc(C(F)(F)F)c1` (single isomer, unassigned) [Compound 40], the IC50 was 7.76 nM. With `Cc1ccccc1C1C2CC(CN3CCOCC3)C(=O)N2CCN1C(=O)N(C)[C@H](C)c1cc(C(F)(F)F)cc(C(F)(F)F)c1` (single isomer, unassigned) [Compound 71], the IC50 was 28.2 nM. For `Cc1ccccc1C1C2CC(CCO)(CCO)C(=O)N2CCN1C(=O)N(C)[C@H](C)c1cc(C(F)(F)F)cc(C(F)(F)F)c1` (single isomer, unassigned) [Compound 53], the IC50 is 2.45 nM. In the case of `Cc1ccccc1C1C2CCC(=O)N2CCN1C(=O)N(C)Cc1cccc(C(F)(F)F)c1` (single isomer, unassigned) [Compound 5, N-methyl-1-(2-methylphenyl)-6-oxo-N-{[3-(trifluoromethyl)phenyl]methyl}-octahydropyrrolo[1,2-a]piperazine-2-carboxamide], the IC50 is 7.41 nM. On to `Cc1ccccc1C1C2CC(CO)CN2CCN1C(=O)N(C)Cc1cc(C(F)(F)F)cc(C(F)(F)F)c1` (single isomer, unassigned) [Compound 28, N-{[3,5-bis(trifluoromethyl)phenyl]methyl}-7-(hydroxymethyl)-N-methyl-1-(2-methylphenyl)-octahydropyrrolo[1,2-a]piperazine-2-carboxamide; methanesulfonic acid salt], for which the IC50 was 0.912 nM. For `Cc1ccccc1C1C2CC(CO)C(=O)N2CCN1C(=O)N(C)[C@H](C)c1cc(C(F)(F)F)cc(C(F)(F)F)c1` (single isomer, unassigned) [Compound 58] the value was 11.5 nM. With `Cc1ccccc1C1C2CC(CCO)C(=O)N2CCN1C(=O)N(C)C(CCO)c1cc(C(F)(F)F)cc(C(F)(F)F)c1` (single isomer, unassigned) [Compound 34, N-{1-[3,5-bis(trifluoromethyl)phenyl]-3-hydroxypropyl}-7-(2-hydroxyethyl)-N-methyl-1-(2-methylphenyl)-6-oxo-octahydropyrrolo[1,2-a]piperazine-2-carboxamide] the figure was 15.5 nM; with `Cc1ccccc1C1C2CC(CO)CN2CCN1C(=O)N(C)Cc1cc(C(F)(F)F)cc(C(F)(F)F)c1` (single isomer, unassigned) [Compound 27, N-{[3,5-bis(trifluoromethyl)phenyl]methyl}-7-(hydroxymethyl)-N-methyl-1-(2-methylphenyl)-octahydropyrrolo[1,2-a]piperazine-2-carboxamide; methanesulfonic acid salt], 58.9 nM; with `Cc1ccccc1C1C2CC(CCO)(CCO)CN2CCN1C(=O)N(C)[C@H](C)c1cc(C(F)(F)F)cc(C(F)(F)F)c1` (single isomer, unassigned) [Compound 59], 60.3 nM. With `Cc1ccccc1C1C2CC(CN3CCOCC3)C(=O)N2CCN1C(=O)N(C)[C@H](C)c1cc(C(F)(F)F)cc(C(F)(F)F)c1` (single isomer, unassigned) [Compound 73] the figure was 0.107 nM; with `Cc1ccccc1C1C2CCCN2CCN1C(=O)N(C)Cc1cc(C(F)(F)F)cc(C(F)(F)F)c1` (single isomer, unassigned) [Compound 62, N-{[3,5-bis(trifluoromethyl)phenyl]methyl}-N-methyl-1-(2-methylphenyl)-octahydropyrrolo[1,2-a]piperazine-2-carboxamide], 0.955 nM. Turning to `Cc1ccccc1C1C2CC(CN3CCOCC3)C(=O)N2CCN1C(=O)N(C)Cc1cc(C(F)(F)F)cc(C(F)(F)F)c1` (single isomer, unassigned) [Compound 39], the IC50 is 2.88 nM. For `Cc1ccccc1[C@@H]1[C@H]2CCC(=O)N2CCN1C(=O)N(C)[C@H](C)c1cc(C(F)(F)F)cc(C(F)(F)F)c1` (single isomer, unassigned) [Compound 10] the value was 12.9 nM; for `Cc1ccccc1C1C2CCCN2CCN1C(=O)N(C)Cc1cc(C(F)(F)F)cc(C(F)(F)F)c1` (single isomer, unassigned) [Compound 61, N-{[3,5-bis(trifluoromethyl)phenyl]methyl}-N-methyl-1-(2-methylphenyl)-octahydropyrrolo[1,2-a]piperazine-2-carboxamide], greater than 100 nM; for `Cc1cc(C)cc(CN(C)C(=O)N2CCN3C(=O)CCC3C2c2ccccc2C)c1` (single isomer, unassigned) [Compound 1, N-[(3,5-dimethylphenyl)methyl]-N-methyl-1-(2-methylphenyl)-6-oxo-octahydropyrrolo[1,2-a]piperazine-2-carboxamide], 6.46 nM.

Regarding `Cc1ccccc1C1C2CC(CCO)(CCO)C(=O)N2CCN1C(=O)N(C)Cc1cc(C(F)(F)F)cc(C(F)(F)F)c1` (racemic) [Compound 42, N-{[3,5-bis(trifluoromethyl)phenyl]methyl}-7,7-bis(2-hydroxyethyl)-N-methyl-1-(2-methylphenyl)-6-oxo-octahydropyrrolo[1,2-a]piperazine-2-carboxamide], the IC50 was 0.0955 nM.

Take `Cc1ccccc1[C@H]1[C@@H]2CC(CCO)(CCO)C(=O)N2CCN1C(=O)N(C)C(CCO)c1cc(C(F)(F)F)cc(C(F)(F)F)c1` (single isomer, unassigned) [Compound 82]: the IC50 is 0.112 nM. For `Cc1ccccc1C1C2CC3(CCN(C)CC3)C(=O)N2CCN1C(=O)N(C)Cc1cc(C(F)(F)F)cc(C(F)(F)F)c1` (single isomer, unassigned) [Compound 46, N-{[3,5-bis(trifluoromethyl)phenyl]methyl}-N,1-dimethyl-4′-(2-methylphenyl)-1′-oxo-hexahydro-1′H-spiro[piperidine-4,2′-pyrrolo[1,2-a]piperazine]-5′-carboxamide], the IC50 was 4.57 nM.

In the case of `COC(=O)C1(C)CC2C(c3ccccc3C)N(C(=O)N(C)Cc3cc(C(F)(F)F)cc(C(F)(F)F)c3)CCN2C1=O` (single isomer, unassigned) [Compound 13, Methyl 2-({[3,5-bis(trifluoromethyl)phenyl]methyl}(methyl)carbamoyl)-7-methyl-1-(2-methylphenyl)-6-oxo-octahydropyrrolo{1,2-a}piperazine-7-carboxylate], the IC50 is 4.17 nM. For `Cc1ccccc1[C@H]1[C@@H]2CC(CCO)(CCO)C(=O)N2CCN1C(=O)N(C)Cc1cccc(C(F)(F)F)c1` [Compound 80, (1S,8aS)-7,7-bis(2-hydroxyethyl)-N-methyl-6-oxo-1-o-tolyl-N-(3-(trifluoromethyl)benzyl)hexahydropyrrolo[1,2-a]pyrazine-2(1H)-carboxamide] the value was 0.468 nM.
